Publication PMC11358443, “Polymodal K^+ channel modulation contributes to dual analgesic and anti-inflammatory actions of traditional botanical medicines” (Communications Biology, 2024)

How the values were obtained:
[1] = biological target: human Kv1.3 (Homo sapiens, UniProt P22001); assay: TEVC electrophysiology, Xenopus oocytes expressing Kv1.3; format: cell-based; conditions: for effect of 160 mM [K+]O on Kv1.3 inhibition: versus 4 mM [K+]O
Procedure: (§1) We generated human potassium channel cRNA transcripts with the mMessage mMachine kit (Thermo Fisher Scientific, Waltham, MA, USA) according to manufacturer’s instructions, after vector linearization, from cDNA sub-cloned into expression vectors (pTLNx, pXOOM and pMAX). We injected Xenopus laevis oocytes (Xenoocyte, Dexter, MI, USA) with the channel cRNAs (0.5–10 ng) and incubated the oocytes at 16 °C for 1–4 days prior to electrophysiological recording.
(§2) We performed TEVC at 20–23 °C with an OC-725C amplifier (Warner Instruments, Hamden, CT, USA) and pClamp10 software. Chemicals for recording and oocyte storage solutions were from Sigma-Aldrich (St. Louis, MO). Bath solution contained (in mM): 96 NaCl, 4 KCl, 1 MgCl2, 1 CaCl2, 10 HEPES (pH 7.6). Pipettes were 1–2 MΩ resistance when filled with 3 M KCl. We recorded currents in response to voltage pulses between −120 mV or −80 mV and +40 mV at 10 mV intervals from a holding potential of −80 mV, to yield current–voltage relationships and examine activation kinetics. We recorded and analyzed data using Clampfit (Molecular Devices, Sunnyvale, CA, USA) and Graphpad Prism software (GraphPad, San Diego, CA, USA), stating values as mean ± SEM. We calculated the voltage dependence of activation (V0.5) by measuring tail currents at a voltage pulse of −30 mV (Kv7) or −50 mV (Kv1), then fitted the tail current/voltage relationship with a single Boltzmann function:1 g=(A1−A2)/{1+exp[V1/2−V/Vs]}y+A2 where g is the normalized tail conductance, A1 is the initial value at −∞, A2 is the final value at +∞, V1/2 is the half-maximal voltage of activation and Vs the slope factor. We fitted activation and deactivation kinetics with single exponential functions.
(§3) For wild-type and mutant Kv1.3 channels we calculated conductance–voltage curves from current–voltage relationships recorded in response to voltage pulses between −80 mV to +40 mV in 10 mV intervals from a holding potential of −80 mV. The conductance was calculated by subtracting the driving force (EK):2 Ek=xlnK^+i/K^+o

[2] = biological target: Kv1.3 Mutant 1 (Homo sapiens, UniProt P22001, D423E/G427Q/P424R/S429P/T425E); assay: TEVC electrophysiology, oocytes expressing Kv1.3 Mutant 1 (Kv1.2 turret loop residues); format: cell-based
Text: (§4) To test whether the predicted different binding poses of tannic acid to Kv1.2 and Kv1.3 could explain the contrasting functional effects on these two channels, we made three mutant forms of Kv1.3, introducing Kv1.2 residues into the Kv1.3 turret loop (Mutant 1), pore helix (Mutant 2) and selectivity filter-S6 linker (Mutant 3) (Fig. 9A, B). Mutant 2 was nonfunctional (Fig. 9C); the single residue in this mutant was inaccessible to tannic acid as it was deep inside the pore and was not predicted therefore to interact with tannic acid (Fig. 8).
as §1, §2, §3

[3] = biological target: Kv1.3 Mutant 3 (Homo sapiens, UniProt P22001, H451V/V453T); assay: TEVC electrophysiology, oocytes expressing Kv1.3 Mutant 3 (Kv1.2 selectivity filter-S6 linker residues); format: cell-based
Text: as §4, §1, §2, §3

[4] = biological target: Kv7.5 (Homo sapiens, UniProt Q9NR82); design: method as in PMID 35997997; conditions: 100 µM; at −80 mV; cited from earlier work
Chain of Kv7.5 (Q9NR82 whole entry): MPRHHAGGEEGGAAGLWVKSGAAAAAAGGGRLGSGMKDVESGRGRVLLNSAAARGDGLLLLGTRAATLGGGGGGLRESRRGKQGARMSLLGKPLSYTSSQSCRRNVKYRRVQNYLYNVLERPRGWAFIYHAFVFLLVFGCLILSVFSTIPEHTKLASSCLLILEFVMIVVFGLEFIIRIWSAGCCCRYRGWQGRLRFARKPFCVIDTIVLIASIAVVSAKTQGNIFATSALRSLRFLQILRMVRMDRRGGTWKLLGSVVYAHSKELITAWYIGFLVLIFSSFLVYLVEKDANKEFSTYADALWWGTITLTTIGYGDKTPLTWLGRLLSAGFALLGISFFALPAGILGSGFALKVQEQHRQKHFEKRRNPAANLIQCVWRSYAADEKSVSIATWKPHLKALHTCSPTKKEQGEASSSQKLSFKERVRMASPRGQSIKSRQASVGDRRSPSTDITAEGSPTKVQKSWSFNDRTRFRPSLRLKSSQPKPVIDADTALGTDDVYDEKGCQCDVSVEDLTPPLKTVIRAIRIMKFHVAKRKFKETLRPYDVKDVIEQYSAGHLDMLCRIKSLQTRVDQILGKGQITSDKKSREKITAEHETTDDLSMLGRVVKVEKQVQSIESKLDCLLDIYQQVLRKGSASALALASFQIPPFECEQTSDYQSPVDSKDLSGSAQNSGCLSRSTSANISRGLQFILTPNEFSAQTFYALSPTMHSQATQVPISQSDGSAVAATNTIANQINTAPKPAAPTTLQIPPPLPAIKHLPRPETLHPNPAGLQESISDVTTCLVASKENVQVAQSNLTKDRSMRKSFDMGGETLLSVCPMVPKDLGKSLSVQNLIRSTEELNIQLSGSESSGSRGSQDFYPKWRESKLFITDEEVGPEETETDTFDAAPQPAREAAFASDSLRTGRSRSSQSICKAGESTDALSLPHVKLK

Chain of human Kv1.3 (P22001 whole entry): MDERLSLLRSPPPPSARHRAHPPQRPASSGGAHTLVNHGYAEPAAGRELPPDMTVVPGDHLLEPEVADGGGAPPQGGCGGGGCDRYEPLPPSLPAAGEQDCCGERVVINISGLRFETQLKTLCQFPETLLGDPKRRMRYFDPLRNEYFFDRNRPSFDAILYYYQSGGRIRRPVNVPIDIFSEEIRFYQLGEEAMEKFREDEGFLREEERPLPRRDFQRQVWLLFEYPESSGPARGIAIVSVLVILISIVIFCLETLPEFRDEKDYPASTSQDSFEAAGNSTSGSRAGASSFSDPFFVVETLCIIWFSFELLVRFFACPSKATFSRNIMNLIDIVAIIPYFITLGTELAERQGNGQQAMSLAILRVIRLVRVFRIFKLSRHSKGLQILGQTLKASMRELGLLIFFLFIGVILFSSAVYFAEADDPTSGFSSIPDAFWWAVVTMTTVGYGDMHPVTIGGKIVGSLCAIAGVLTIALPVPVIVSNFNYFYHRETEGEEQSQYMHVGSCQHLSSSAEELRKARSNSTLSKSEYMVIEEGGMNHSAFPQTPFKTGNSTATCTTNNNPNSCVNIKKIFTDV
Chain of Kv1.3 Mutant 3 (P22001 whole entry H451V/V453T): as the sequence (P22001 whole entry) above, with H451V, V453T counted along it
Chain of Kv1.3 Mutant 1 (P22001 whole entry D423E/P424R/T425E/G427Q/S429P): as the sequence (P22001 whole entry) above, with D423E, P424R, T425E, G427Q, S429P counted along it

tannic acid
Current at 0 (mV) ([1]; 0.1 µM tannic acid, control 1.99 ± 0.28): 2.39 ± 0.41 | Slope ([1]; 0.1 µM tannic acid, control 4.86 ± 0.31): 4.70 ± 0.45 mV | V0.5 Normalized tail current ([1]; 0.1 µM tannic acid, control -27.75 ± 1.03): -27.80 ± 2.36 mV | Current at 0 (mV) ([1]; 1 µM tannic acid): 2.23 ± 0.35 | Slope ([1]; 1 µM tannic acid): 4.73 ± 0.52 mV | V0.5 Normalized tail current ([1]; 1 µM tannic acid): -28.17 ± 3.08 mV | Current at 0 (mV) ([1]; 3 µM tannic acid): 1.96 ± 0.31 | Slope ([1]; 3 µM tannic acid): 5.21 ± 0.43 mV | V0.5 Normalized tail current ([1]; 3 µM tannic acid): -28.73 ± 3.31 mV | Current at 0 (mV) ([1]; 10 µM tannic acid): 1.09 ± 0.25 | Slope ([1]; 10 µM tannic acid): 7.44 ± 0.95 mV | V0.5 Normalized tail current ([1]; 10 µM tannic acid): -25.49 ± 4.06 mV | Current at 0 (mV) ([1]; 30 µM tannic acid): 0.72 ± 0.27 | Slope ([1]; 30 µM tannic acid): 10.91 ± 2.27 mV | V0.5 Normalized tail current ([1]; 30 µM tannic acid): -19.06 ± 4.68 mV | time to steady-state block ([1]; 30 µM tannic acid, 2 s depolarizing pulses every 60 s (6 pulses)): 300 ms | time to steady-state block ([1]; 30 µM tannic acid, 200-ms depolarizing pulses every 60 s (13 pulses)): 700 ms | effect of 160 mM [K+]O on Kv1.3 inhibition ([1]; 30 µM tannic acid): abolished inhibition | Current at 0 (mV) ([1]; 100 µM tannic acid): 0.32 ± 0.08 | Slope ([1]; 100 µM tannic acid): 15.18 ± 2.02 mV | V0.5 Normalized tail current ([1]; 100 µM tannic acid): -9.91 ± 3.45 mV | effect of 160 mM [K+]O on Kv1.3 inhibition ([1]; 100 µM tannic acid): significantly reduced the efficacy | IC50 ([1]; prepulse current, read-out: IC50 for Kv1.3 inhibition in oocytes): 12 ± 1.3 µM | concentrations that depolarized the EM of oocytes expressing Kv1.3 ([1]; unclamped oocytes): above 10 µM | Slope ([2]; 0.1 µM tannic acid, control 3.97 ± 0.40): 5.16 ± 0.56 mV | Current at 0 (mV) ([2]; 0.1 µM tannic acid, control 4.66 ± 1.27): 5.24 ± 0.91 | V0.5 Normalized tail current ([2]; 0.1 µM tannic acid, control -14.75 ± 3.06): -20.05 ± 2.13 mV | Current at 0 (mV) ([2]; 1 µM tannic acid): 5.37 ± 0.63 | Slope ([2]; 1 µM tannic acid): 4.97 ± 0.53 mV | V0.5 Normalized tail current ([2]; 1 µM tannic acid): -24.05 ± 2.18 mV | Current at 0 (mV) ([2]; 3 µM tannic acid): 4.93 ± 0.57 | Slope ([2]; 3 µM tannic acid): 5.05 ± 0.28 mV | V0.5 Normalized tail current ([2]; 3 µM tannic acid): -27.01 ± 1.83 mV | Current at 0 (mV) ([2]; 10 µM tannic acid): 4.01 ± 0.41 | Slope ([2]; 10 µM tannic acid): 5.33 ± 0.20 mV | V0.5 Normalized tail current ([2]; 10 µM tannic acid): -27.63 ± 1.98 mV | Current at 0 (mV) ([2]; 30 µM tannic acid): 2.18 ± 0.24 | Slope ([2]; 30 µM tannic acid): 5.94 ± 0.30 mV | V0.5 Normalized tail current ([2]; 30 µM tannic acid): -24.82 ± 2.70 mV | Current at 0 (mV) ([2]; 100 µM tannic acid): 1.15 ± 0.14 | Slope ([2]; 100 µM tannic acid): 6.41 ± 0.42 mV | V0.5 Normalized tail current ([2]; 100 µM tannic acid): -19.79 ± 4.83 mV | reduction of tannic acid sensitivity versus wild-type Kv1.3 ([2]; inhibition dose response): threefold | Slope ([3]; 0.1 µM tannic acid, control 2.50 ± 0.70): 4.01 ± 0.35 mV | Current at 0 (mV) ([3]; 0.1 µM tannic acid, control 3.39 ± 0.48): 4.20 ± 0.53 | V0.5 Normalized tail current ([3]; 0.1 µM tannic acid, control -31.00 ± 0.53): -30.20 ± 0.78 mV | Current at 0 (mV) ([3]; 1 µM tannic acid): 4.44 ± 0.64 | Slope ([3]; 1 µM tannic acid): 3.67 ± 0.41 mV | V0.5 Normalized tail current ([3]; 1 µM tannic acid): -30.51 ± 0.97 mV | Current at 0 (mV) ([3]; 3 µM tannic acid): 4.25 ± 0.64 | Slope ([3]; 3 µM tannic acid): 4.85 ± 0.24 mV | V0.5 Normalized tail current ([3]; 3 µM tannic acid): -30.85 ± 1.34 mV | Current at 0 (mV) ([3]; 10 µM tannic acid): 2.28 ± 0.38 | Slope ([3]; 10 µM tannic acid): 6.40 ± 0.62 mV | V0.5 Normalized tail current ([3]; 10 µM tannic acid): -29.05 ± 1.94 mV | Current at 0 (mV) ([3]; 30 µM tannic acid): 0.88 ± 0.13 | Slope ([3]; 30 µM tannic acid): 14.11 ± 1.75 mV | V0.5 Normalized tail current ([3]; 30 µM tannic acid): -16.81 ± 5.40 mV | Current at 0 (mV) ([3]; 100 µM tannic acid): 0.50 ± 0.07 | change of tannic acid IC50 versus wild-type Kv1.3 ([3]; inhibition dose response): did not alter | constitutive activation for Kv7.5 [4]: 50%
